Here are results for 71 compounds from US9085562B2, “6-alkyl-N-(pyridin-2-yl)-4-aryloxypicolinamide analogs as mGluR5 negative allosteric modulators and methods of making and using the same” (Vanderbilt University, priority 2011, dated 2015).

The term IC50 denotes the concentration needed to halve the response being measured. Broadly, the bioavailability is the share of a dose that reaches the circulation, judged against a reference dose that is usually intravenous. In general, half-life refers to the time in which the quantity being followed falls by half. A higher half-life goes with slow loss. Broadly, the Cmax is the highest concentration seen after dosing. By Tmax is commonly meant the time from dosing to the highest level.

Molecules are shown by their SMILES.

One data set has as its target T1, rat mGluR5 (Rattus norvegicus, UniProt P31424).
T1 construct: expressed in transfected cells
Description: mGluR5 calcium mobilization assay (HEK 293A cells, FDSS). The class given is cell-based. Particulars: HEK cells transfected with rat mGluR5; antagonism of glutamate EC80 response; Table 1. How it is done:
Human embryonic kidney (HEK) cells transfected with rat or human mGluR5 were plated in clear bottom assay plates for assay in a Functional Drug Screening System (FDSS). The cells were loaded with a Ca2+-sensitive fluorescent dye (e.g., Fluo-4), and the plates were washed and placed in the FDSS instrument. Test compound was applied to cells 3 seconds after baseline readings were taken. Cells were incubated with the test compounds for 140 seconds and then stimulated with an EC20 concentration of an mGluR5 agonist (e.g., glutamate, 3,5-dihydroxyphenylglycine, or quisqualate); 60-80 seconds later an EC80 concentration of agonist was added and readings taken for an additional 40 seconds. Data were collected at 1 Hz. […] Concentration response curves were generated using a four parameter logistical equation.
The above described assay was operated in two modes. In the first mode (utilizing a triple add protocol), a range of concentrations of the present compounds were added to cells, followed by two single fixed concentrations of agonist (EC20 followed by EC80). If a compound acted as a potentiator, an EC50 value for potentiation of the EC20 response and a maximum extent of potentiation by the compound at this concentration of agonist was determined by non-linear curve fitting. If a compound acted as an antagonist, an IC50 value for antagonism of the EC80 response and a maximum extent of antagonism by the compound at this concentration of agonist was determined by non-linear curve fitting. In the second mode (utilizing a double add protocol), several fixed concentrations of the present compounds were added to various wells on a plate, followed by a range of concentrations of agonist for each concentration of present compound; the EC50 values for the agonist at each concentration of compound were determined by nonlinear curve fitting. A decrease in the EC50 value of the agonist with increasing concentrations of the present compounds (a leftward shift of the agonist concentration-response curve) is an indication of the degree of mGluR5 positive allosteric modulation at a given concentration of the present compound. An increase in the EC50 value of the agonist with increasing concentrations of the present compounds (a rightward shift of the agonist concentration response curve) is an indication of the degree of mGluR5 antagonism at a given concentration of the present compound. The second mode also indicates whether the present compounds also affect the maximum response to mGluR5 to agonists.
The mGluR5 activity was determined using the metabotropic glutamate receptor activity assays in human embryonic kidney cells as described herein, wherein the human embryonic kidney cells were transfected with rat mGluR5. The mGluR5 activity data for some compounds are shown as the average of at least three experiments with the standard error in these cases. If no error is indicated for the mGluR5 activity, the values given represent the results from a single experiment or the average of two experiments. The compounds in Table 1 were synthesized with methods identical or analogous to those shown herein. The requisite starting materials were commercially available, described in the literature, or readily synthesized by one skilled in the art of organic synthesis.
The cells were grown overnight at 37° C. in the presence of 5% CO2. […] Dye was removed, 20 μL of assay buffer was added, and the plate was incubated for 10 minutes at room temperature.
Ca^2+ flux was measured using the Functional Drug Screening System (FDSS6000, Hamamatsu, Japan). After establishment of a fluorescence baseline for about 3 seconds, the compounds of the present invention were added to the cells, and the response in cells was measured.

Data set [1] can be described thus: Rat IV/PO pharmacokinetics. To be noted: in vivo; for bioavailability / clearance / half-life / Vd: Rat IV/PO; for Vd: read-out: Vss; for Cmax / Tmax: Rat PO. The text has this:
Additional physicochemical and pharmacological data are provided below in Tables 2-4 for Test Compounds 1 and 2 (Compounds […] and (2) as described herein).

T1 sequence (P31424 21-1171 isoform P31424-2 limits assumed): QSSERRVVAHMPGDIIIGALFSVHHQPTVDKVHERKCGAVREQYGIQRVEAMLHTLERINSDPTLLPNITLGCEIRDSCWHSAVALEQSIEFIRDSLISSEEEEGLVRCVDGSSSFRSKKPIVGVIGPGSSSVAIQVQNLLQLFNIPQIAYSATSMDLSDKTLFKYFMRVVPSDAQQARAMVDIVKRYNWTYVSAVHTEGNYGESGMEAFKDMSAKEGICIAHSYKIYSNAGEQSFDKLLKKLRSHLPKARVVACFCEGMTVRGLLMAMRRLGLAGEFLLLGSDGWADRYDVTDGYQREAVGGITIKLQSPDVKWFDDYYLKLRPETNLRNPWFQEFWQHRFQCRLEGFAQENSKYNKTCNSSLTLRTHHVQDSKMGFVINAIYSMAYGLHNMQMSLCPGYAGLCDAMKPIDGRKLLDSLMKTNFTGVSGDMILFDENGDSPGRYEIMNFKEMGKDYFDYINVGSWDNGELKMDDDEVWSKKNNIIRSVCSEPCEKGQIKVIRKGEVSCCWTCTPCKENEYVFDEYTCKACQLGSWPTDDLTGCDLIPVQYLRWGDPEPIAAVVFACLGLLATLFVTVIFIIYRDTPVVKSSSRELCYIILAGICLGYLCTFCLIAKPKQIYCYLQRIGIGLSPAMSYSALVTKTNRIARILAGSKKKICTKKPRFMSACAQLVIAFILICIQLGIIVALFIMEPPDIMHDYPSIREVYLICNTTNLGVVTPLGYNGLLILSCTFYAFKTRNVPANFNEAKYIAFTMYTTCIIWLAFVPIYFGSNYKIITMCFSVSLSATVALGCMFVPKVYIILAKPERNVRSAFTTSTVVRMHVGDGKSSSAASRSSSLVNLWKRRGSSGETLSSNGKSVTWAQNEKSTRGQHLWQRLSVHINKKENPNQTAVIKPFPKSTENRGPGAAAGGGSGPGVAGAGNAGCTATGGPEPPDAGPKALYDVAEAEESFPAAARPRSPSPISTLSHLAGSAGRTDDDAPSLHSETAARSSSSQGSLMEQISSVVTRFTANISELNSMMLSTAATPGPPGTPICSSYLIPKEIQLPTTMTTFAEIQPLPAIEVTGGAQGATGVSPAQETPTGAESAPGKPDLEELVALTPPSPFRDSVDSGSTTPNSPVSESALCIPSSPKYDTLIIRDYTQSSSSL

For the compound `Cc1ccc(Oc2cc(C)nc(C(=O)Nc3cccc(F)n3)c2)cn1`, the IC50 at rat mGluR5 was 64 nM.
With `CCc1cc(Oc2cncnc2)cc(C(=O)Nc2ccc(C#N)cn2)n1`, the half-maximal inhibitory concentration (IC50) on rat mGluR5 came out at 156 nM.
`CCc1cc(Oc2cncnc2)cc(C(=O)Nc2cccc(F)n2)n1`: on rat mGluR5, the IC50 is 24 nM.
Consider `CCc1cccc(NC(=O)c2cc(Oc3cncnc3)cc(CC)n2)n1`, for which the IC50 at rat mGluR5 came to 19 nM.
Same read-out and setting: in the case of `Cc1cc(Oc2cccnc2)cc(C(=O)Nc2cc(F)ccn2)n1` it was 26 nM.
For `Cc1cc(Oc2cncc(Cl)c2)cc(C(=O)Nc2ccc(F)c(C)n2)n1`, at rat mGluR5, the IC50 turned out to be 14 nM.
Take `Cc1cccc(NC(=O)c2cc(Oc3cncc(Cl)c3)cc(C)n2)n1`: the IC50 at rat mGluR5 is 6.7 nM.
In the case of `Cc1cc(Oc2ccc(C(F)(F)F)nc2)cc(C(=O)Nc2ccc(Cl)cn2)n1`, at rat mGluR5, the IC50 is > 30000 nM.
Same read-out and setting: in the case of `CCc1cccc(NC(=O)c2cc(Oc3ccc(C)nc3)cc(C)n2)n1` it was 152 nM; in that of `Cc1ccc(NC(=O)c2cc(Oc3cccnc3)cc(C)n2)nc1`, 10 nM; in that of `CCc1cc(Oc2cncnc2)cc(C(=O)Nc2cccc(Cl)n2)n1`, 14 nM.
Still for that read-out and setting: under `Cc1cc(Oc2cccnc2)cc(C(=O)Nc2ccc(F)cn2)n1` stands 4.1 nM; under `Cc1cc(Oc2cnc(C)nc2)cc(C(=O)Nc2cccc(F)n2)n1`, 21 nM.
`CCc1cc(Oc2cncnc2)cc(C(=O)Nc2ccc(C(F)(F)F)cn2)n1`: the IC50 at rat mGluR5 is > 30000 nM.
In the case of `Cc1cc(Oc2cncc(C#N)c2)cc(C(=O)Nc2cc(F)ccn2)n1`, at rat mGluR5, the concentration for half-maximal inhibition (IC50) was 15 nM.
Same read-out and setting: in the case of `CCc1cc(Oc2cncc(F)c2)cc(C(=O)Nc2cc(C)c(F)cn2)n1` it was > 30000 nM; in that of `Cc1cc(Oc2ccc(C(F)(F)F)nc2)cc(C(=O)Nc2cccc(F)n2)n1`, 397 nM; in that of `CCc1cc(Oc2cncnc2)cc(C(=O)Nc2ccc(Cl)cn2)n1`, 25 nM.
For `Cc1ccc(Oc2cc(C)nc(C(=O)Nc3cccc(Cl)n3)c2)cn1`, the IC50 on rat mGluR5 came out at 172 nM.
On the same count and under the same terms, in the case of `Cc1ccc(NC(=O)c2cc(Oc3cncc(Cl)c3)cc(C)n2)nc1` it was 6.4 nM; in that of `Cc1cc(Oc2cccnc2)cc(C(=O)Nc2cccc(F)n2)n1`, 3.4 nM; in that of `CCc1cc(Oc2cncc(F)c2)cc(C(=O)Nc2cccc(F)n2)n1`, 18 nM.
In the case of `Cc1ccc(Oc2cc(C)nc(C(=O)Nc3ccc(F)c(C)n3)c2)cn1`, the IC50 on rat mGluR5 came to 328 nM.
`Cc1cccc(NC(=O)c2cc(Oc3cnc(C)nc3)cc(C)n2)n1`: the IC50 on rat mGluR5 is 20 nM.
Take `CCc1cc(Oc2cncnc2)cc(C(=O)Nc2ccc(F)cn2)n1`: the IC50 on rat mGluR5 came out at 9.3 nM.
`CCc1cc(Oc2cncc(F)c2)cc(C(=O)Nc2ccc(F)c(C)n2)n1`: the IC50 on rat mGluR5 stood at 159 nM.
The same measure, in the same setting: under `Cc1cc(Oc2ccc(C(F)(F)F)nc2)cc(C(=O)Nc2cc(F)ccn2)n1` stands 4880 nM.
Same read-out and setting: in the case of `Cc1cc(Oc2cccnc2)cc(C(=O)Nc2cc(C#N)ccn2)n1` it was > 10000 nM; in that of `CCc1cccc(NC(=O)c2cc(Oc3cncc(Cl)c3)cc(C)n2)n1`, 14 nM.
Still for that read-out and setting: under `CCc1cc(Oc2cncnc2)cc(C(=O)Nc2ccc(F)c(C)n2)n1` stands 27 nM.
As for `Cc1ccc(NC(=O)c2cc(Oc3cncc(F)c3)cc(C)n2)nc1`, at rat mGluR5, the IC50 is 6.8 nM.
Same read-out and setting: under `CCc1cccc(NC(=O)c2cc(Oc3cccnc3)cc(C)n2)n1` stands 13 nM; under `CCc1cc(Oc2cncc(F)c2)cc(C(=O)Nc2cccc(Cl)n2)n1`, 59 nM; under `Cc1ccc(Oc2cc(C)nc(C(=O)Nc3cccc(C)n3)c2)cn1`, 13 nM.
`Cc1cc(Oc2cccnc2)cc(C(=O)Nc2ccc(C#N)cn2)n1`: on rat mGluR5, the IC50 was found to be 14 nM.
On to `Cc1cc(Oc2cccnc2)cc(C(=O)Nc2ccc(Cl)cn2)n1`, for which the IC50 on rat mGluR5 turned out to be 5.5 nM.
Turning to `CCc1cc(Oc2cncnc2)cc(C(=O)Nc2cc(C)c(F)cn2)n1`, the IC50 on rat mGluR5 came to 677 nM.
On to `Cc1cc(Oc2cncc(Cl)c2)cc(C(=O)Nc2ccccn2)n1`, for which the IC50 on rat mGluR5 was found to be 2.2 nM.
`CCc1cc(Oc2cncnc2)cc(C(=O)Nc2ccc(C)cn2)n1`: the IC50 at rat mGluR5 came to 27 nM.
As for `Cc1cc(Oc2cncc(F)c2)cc(C(=O)Nc2ccc(F)cn2)n1` [drawing 266], in data set [1], the bioavailability is 67 to 75%, the clearance amounted to 9.15 mL/min/kg, the half-life was 4.7 h and the Vd stood at 1.89 L/kg. In data set [1], the Cmax worked out at 3330 nM and the Tmax turned out to be 1.5 h.
Turning to `Cc1cccc(NC(=O)c2cc(Oc3cccnc3)cc(C)n2)n1`, the IC50 at rat mGluR5 was determined as 4.4 nM.
On to `Cc1ccc(Oc2cc(C)nc(C(=O)Nc3cc(C#N)ccn3)c2)cn1`, for which the IC50 on rat mGluR5 came to 387 nM.
As to `Cc1ccc(NC(=O)c2cc(Oc3cncnc3)cc(C(F)F)n2)nc1`, the IC50 on rat mGluR5 worked out at 72 nM.
Consider `Cc1ccc(Oc2cc(C)nc(C(=O)Nc3cc(F)ccn3)c2)cn1`, for which the IC50 at rat mGluR5 is 1800 nM.
Same read-out and setting: under `CCc1cc(Oc2cncc(F)c2)cc(C(=O)Nc2ccc(C#N)cn2)n1` stands 108 nM; under `Cc1cc(Oc2cccnc2)cc(C(=O)Nc2ccc(C(F)(F)F)cn2)n1`, 1110 nM.
Regarding `CCc1cc(Oc2cncc(F)c2)cc(C(=O)Nc2cc(F)ccn2)n1`, the IC50 on rat mGluR5 was determined as 333 nM.
Regarding `CCc1cccc(NC(=O)c2cc(Oc3cncc(F)c3)cc(CC)n2)n1`, on rat mGluR5, the IC50 was 468 nM.
In the case of `CCc1cc(Oc2cncc(F)c2)cc(C(=O)Nc2ccc(F)cn2)n1`, at rat mGluR5, the IC50 came to 11 nM.
With `CCc1cc(Oc2cncc(F)c2)cc(C(=O)Nc2ccc(C)cn2)n1`, on rat mGluR5, the IC50 is 41 nM.
As to `Cc1cc(Oc2cncc(F)c2)cc(C(=O)Nc2cccc(Cl)n2)n1`, at rat mGluR5, the IC50 came out at 8.2 nM.
On the same count and under the same terms, in the case of `Cc1cc(Oc2cncc(C#N)c2)cc(C(=O)Nc2ccc(F)cn2)n1` it was 5.4 nM.
The same measure, in the same setting: in the case of `Cc1ccc(Oc2cc(C)nc(C(=O)Nc3ccc(C(F)(F)F)cn3)c2)cn1` it was > 30000 nM; in that of `Cc1cc(Oc2cncc(Cl)c2)cc(C(=O)Nc2cccc(Cl)n2)n1`, 14 nM; in that of `Cc1ccc(Oc2cc(C)nc(C(=O)Nc3ccc(C#N)cn3)c2)cn1`, 693 nM.
As to `Cc1cc(Oc2cncc(Cl)c2)cc(C(=O)Nc2ccc(C(F)(F)F)cn2)n1`, the IC50 at rat mGluR5 was > 10000 nM.
As for `CCc1cc(Oc2cncc(F)c2)cc(C(=O)Nc2ccc(Cl)cn2)n1`, the IC50 on rat mGluR5 worked out at 333 nM.
The same measure, in the same setting: in the case of `Cc1cc(Oc2cncc(Cl)c2)cc(C(=O)Nc2cc(C#N)ccn2)n1` it was 548 nM.
On the same count and under the same terms, in the case of `Cc1cc(Oc2ccc(C(F)(F)F)nc2)cc(C(=O)Nc2ccc(F)cn2)n1` it was 255 nM.
As for `CCc1cc(Oc2cncnc2)cc(C(=O)Nc2cccc(C)n2)n1`, on rat mGluR5, the IC50 was found to be 6.1 nM.
As for `Cc1cc(Oc2cncc(Cl)c2)cc(C(=O)Nc2cccc(F)n2)n1`, on rat mGluR5, the IC50 came to 5.3 nM.
`Cc1cccc(NC(=O)c2cc(Oc3ccc(C(F)(F)F)nc3)cc(C)n2)n1`: at rat mGluR5, the IC50 came to 177 nM.
For the compound `Cc1cc(Oc2cnc(C)nc2)cc(C(=O)Nc2cc(F)ccn2)n1`, the IC50 on rat mGluR5 is 1890 nM.
Turning to `CCc1cc(Oc2cncc(F)c2)cc(C(=O)Nc2ccc(C(F)(F)F)cn2)n1`, the IC50 at rat mGluR5 is > 30000 nM.
Turning to `Cc1ccc(Oc2cc(C)nc(C(=O)Nc3ccc(Cl)cn3)c2)cn1`, the IC50 at rat mGluR5 amounted to 635 nM.
For the compound `Cc1cc(Oc2cncnc2)cc(C(=O)Nc2ccc(F)cn2)n1` [drawing 265], in data set [1], the bioavailability fell in the range of 30 to 76%, the clearance worked out at 19.2 mL/min/kg, the half-life is 0.47 h and the Vd was determined as 1.78 L/kg. Moreover, in data set [1], the Cmax came to 2170 nM and the Tmax amounted to 0.5 h.
As to `CCc1cc(Oc2cncc(F)c2)cc(C(=O)Nc2cccc(C)n2)n1`, the IC50 on rat mGluR5 was found to be 13 nM.
In the case of `Cc1cc(Oc2cnc(C)nc2)cc(C(=O)Nc2ccc(Cl)cn2)n1`, at rat mGluR5, the IC50 worked out at 209 nM.
On to `Cc1cc(Oc2cncc(Cl)c2)cc(C(=O)Nc2ccc(C#N)cn2)n1`, for which the IC50 at rat mGluR5 was determined as 11 nM.
For `Cc1cc(Oc2cncc(Cl)c2)cc(C(=O)Nc2ccc(Cl)cn2)n1`, on rat mGluR5, the IC50 amounted to 18 nM.
Same read-out and setting: in the case of `Cc1ccc(NC(=O)c2cc(Oc3ccc(C)nc3)cc(C)n2)nc1` it was 966 nM.
